Calls of active or inactive are those of the source. For most assays here, no stated cut-off is given here; in the data, actives have a measured EC50 and inactives only a lower limit.
Columns and labels:
[1] = biological target: T1, Heat shock factor protein 1 (Mus musculus, UniProt P38532); assay: inhibition of MG132-induced HSE-luciferase signal, confirmation, cell-based, NIH3T3, luminescence, dose retest (AID 2382); format: functional;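 further: NIH3T3 fibroblasts with HSF1-driven luciferase reporter stressed by proteasome inhibitor MG132; luminescence from HSF1-driven luciferase expression after 8 hours of MG132 stress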
T1 sequence (P38532 whole entry): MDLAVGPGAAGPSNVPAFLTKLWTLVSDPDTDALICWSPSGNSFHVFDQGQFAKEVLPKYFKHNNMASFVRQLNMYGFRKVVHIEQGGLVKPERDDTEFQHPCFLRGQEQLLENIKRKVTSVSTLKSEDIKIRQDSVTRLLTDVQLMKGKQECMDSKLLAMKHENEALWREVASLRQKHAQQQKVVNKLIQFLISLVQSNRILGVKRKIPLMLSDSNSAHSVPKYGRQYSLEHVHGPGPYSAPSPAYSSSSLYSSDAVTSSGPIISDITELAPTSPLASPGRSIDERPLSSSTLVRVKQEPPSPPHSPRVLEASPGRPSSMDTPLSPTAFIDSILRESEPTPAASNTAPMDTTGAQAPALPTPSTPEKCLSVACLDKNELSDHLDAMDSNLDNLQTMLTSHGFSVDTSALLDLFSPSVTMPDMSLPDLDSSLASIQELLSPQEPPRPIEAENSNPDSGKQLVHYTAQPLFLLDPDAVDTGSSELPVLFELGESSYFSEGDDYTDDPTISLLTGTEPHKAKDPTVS

BJ = assay: cytotoxicity toward Ras-transformed BJeLR fibroblasts, dose response, cell-based, alamar blue fluorescence, cherrypicked samples (AID 2631); format: functional; settings: Homo sapiens;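 further: confirmatory dose-response assay in RAS-dependent BJ fibroblasts engineered with TERT, LT and ST, with cytotoxicity read by fluorescence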
[2] = biological target: T2, Sentrin-specific protease 7 (Homo sapiens, UniProt Q9BQF6); assay: SENP7 protease inhibitors, SAR follow-up, biochemical, luminescence (AID 504497); format: functional
T2 sequence (Q9BQF6 whole entry): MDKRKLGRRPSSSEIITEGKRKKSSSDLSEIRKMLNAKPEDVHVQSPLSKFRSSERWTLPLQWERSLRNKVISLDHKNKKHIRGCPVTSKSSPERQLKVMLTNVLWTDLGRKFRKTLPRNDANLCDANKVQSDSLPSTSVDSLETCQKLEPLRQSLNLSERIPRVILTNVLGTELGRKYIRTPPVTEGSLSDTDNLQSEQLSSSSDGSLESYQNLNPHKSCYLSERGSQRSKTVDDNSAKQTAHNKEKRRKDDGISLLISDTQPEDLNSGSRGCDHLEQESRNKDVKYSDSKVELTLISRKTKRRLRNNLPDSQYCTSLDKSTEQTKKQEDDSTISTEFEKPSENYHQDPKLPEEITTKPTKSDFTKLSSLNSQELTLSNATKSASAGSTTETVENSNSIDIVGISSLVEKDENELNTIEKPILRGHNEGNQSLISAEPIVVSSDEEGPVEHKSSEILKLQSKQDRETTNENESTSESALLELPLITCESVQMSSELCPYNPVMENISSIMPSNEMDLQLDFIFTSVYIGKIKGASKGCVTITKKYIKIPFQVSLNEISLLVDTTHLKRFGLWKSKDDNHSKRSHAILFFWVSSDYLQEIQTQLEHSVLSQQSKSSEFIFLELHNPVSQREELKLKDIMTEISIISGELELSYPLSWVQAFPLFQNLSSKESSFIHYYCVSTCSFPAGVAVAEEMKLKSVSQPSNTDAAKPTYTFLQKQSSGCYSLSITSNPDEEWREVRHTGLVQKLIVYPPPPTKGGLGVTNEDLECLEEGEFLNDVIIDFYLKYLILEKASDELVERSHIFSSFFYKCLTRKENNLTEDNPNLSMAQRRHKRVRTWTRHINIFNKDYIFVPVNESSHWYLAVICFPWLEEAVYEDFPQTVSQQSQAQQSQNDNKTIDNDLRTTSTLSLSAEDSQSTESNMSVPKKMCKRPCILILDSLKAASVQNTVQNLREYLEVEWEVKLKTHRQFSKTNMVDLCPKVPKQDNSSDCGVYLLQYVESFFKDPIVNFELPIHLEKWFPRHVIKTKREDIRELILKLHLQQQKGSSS

[3] = Luminescence-based cell-based high throughput dose response assay to identify activators of the DAF-12 from the parasite S. stercoralis (ssDAF-12).; format: functional
[4] = biological target: T3, RNA-binding protein pos-1 (Caenorhabditis elegans, UniProt G5EF15); assay: inhibitors of POS-1/mex-3 RNA binding, dose response, biochemical, fluorescence polarization (AID 1964);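 further: purified POS-1 fused to maltose binding protein made in E. coli; potency of compounds blocking POS-1 binding to fluorescent RNA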
T3 sequence (G5EF15 whole entry): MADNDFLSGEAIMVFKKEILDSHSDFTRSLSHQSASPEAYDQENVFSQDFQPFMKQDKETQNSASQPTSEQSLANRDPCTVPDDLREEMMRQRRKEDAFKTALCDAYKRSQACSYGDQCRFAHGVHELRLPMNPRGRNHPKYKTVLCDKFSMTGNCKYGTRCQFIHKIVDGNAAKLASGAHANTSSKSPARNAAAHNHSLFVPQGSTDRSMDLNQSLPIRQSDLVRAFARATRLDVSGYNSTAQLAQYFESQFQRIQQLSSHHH

[5] = biological target: T4, Zinc finger protein mex-5 (Caenorhabditis elegans, UniProt Q9XUB2); assay: MEX-5/TCR-2 RNA interaction inhibitors, dose response, biochemical, C. elegans, fluorescence polarization (AID 1960)
T4 sequence (Q9XUB2 whole entry): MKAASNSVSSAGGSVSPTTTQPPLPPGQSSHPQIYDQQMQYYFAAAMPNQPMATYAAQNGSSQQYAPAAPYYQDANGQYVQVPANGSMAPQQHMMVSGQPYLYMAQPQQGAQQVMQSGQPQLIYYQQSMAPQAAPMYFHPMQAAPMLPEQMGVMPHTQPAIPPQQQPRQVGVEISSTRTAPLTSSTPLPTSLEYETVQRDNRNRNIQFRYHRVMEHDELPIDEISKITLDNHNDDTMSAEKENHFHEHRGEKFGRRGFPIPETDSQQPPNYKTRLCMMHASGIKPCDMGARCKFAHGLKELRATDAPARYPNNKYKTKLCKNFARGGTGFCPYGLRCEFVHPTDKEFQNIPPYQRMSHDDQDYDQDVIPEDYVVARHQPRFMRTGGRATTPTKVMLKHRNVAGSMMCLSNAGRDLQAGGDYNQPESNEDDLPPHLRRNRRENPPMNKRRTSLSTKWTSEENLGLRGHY

Compound: Cc1nn(-c2ccccc2)c(Cl)c1CN(C(=O)CCl)c1ccc(Cl)cc1
- EC50 [1]: 1.57 µM (active)
- EC50 (BJ): 0.515 µM (active)

Compound: Oc1ccccc1/C=C/c1noc(-c2ccccc2O)n1
- IC50 [2]: 2.5 µM (active)
- IC50 [3]: > 67.6 µM (inactive)

Compound: O=C(O)CSc1cc(NS(=O)(=O)c2ccc(Cl)cc2)c2ccccc2c1O
- EC50 [4]: 36.8 µM (active)
- EC50 [5]: 6.3 µM (active)

— ChEMBL document CHEMBL1201862, “PubChem BioAssay data set” (2004)
